Format in all cases: in vivo
Assay [1] relates to Amaranthus retoflexus (AMARE). In words: Pre-emergence biological efficacy, glasshouse pot test. As to conditions: Amaranthus retroflexus, 312 h. A digest of the protocol:
(§1)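 Test compound, formulated in acetone/water (50:50) containing 0.5% Tween 20 and diluted into an aqueous spray, was applied at 1000 or 250 g/ha to pots sown one day earlier. Injury was rated after 13 days, 100 meaning total damage.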

Assay [2] deals with Solanum nigrum (SOLNI). The assay is described as above. As to conditions: 312 h. The procedure, abridged: as §1
In assay [3] the test system is Setaria faberi (SETFA). The description is as above. As to conditions: 312 h. A digest of the protocol: as §1
The subject of assay [4] is Echinochloa crus-galli (ECHCG). The description is as above. As to conditions: 312 h. The procedure, abridged:
as §1

The subject of assay [5] is Ipomea hederaceae (IPOHE). Described as above. As to conditions: Ipomoea hederacea, 312 h. The procedure, abridged:
as §1

For assay [6], the system named is Alopecurus myosuroides (ALOMY). The description is as above. As to conditions: 312 h. The procedure, abridged: as §1
Assay [7] has as its system Amaranthus retoflexus (AMARE). Description: Post-emergence biological efficacy, glasshouse pot test. As to conditions: Amaranthus retroflexus, 312 h. The procedure, abridged:
(§2)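 Plants were sown in standard soil and grown 8 days in a glasshouse (24/16° C. day/night, 14 hours light, 65% humidity), then sprayed post-emergence at 1000 or 250 g/ha from acetone/water (50:50) with 0.5% Tween 20. Damage was scored visually after 13 days (0 = none, 100 = total).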

Assay [8] deals with Solanum nigrum (SOLNI). The assay is described as above. As to conditions: 312 h. A digest of the protocol:
as §2

The subject of assay [9] is Setaria faberi (SETFA). The description is as above. As to conditions: 312 h. A digest of the protocol:
as §2

In assay [10] the test system is Echinochloa crus-galli (ECHCG). The description is as above. As to conditions: 312 h. A digest of the protocol:
as §2

For assay [11], the system named is Ipomea hederaceae (IPOHE). The description is as above. As to conditions: Ipomoea hederacea, 312 h. A digest of the protocol:
as §2

The test system of assay [12] is Alopecurus myosuroides (ALOMY). Described as above. As to conditions: 312 h. The procedure, abridged:
as §2

[13] abbreviates: pre-emergence, 1,000 g/ha, evaluated after 13 days (100=total damage; 0=no damage), read-out: Percentage damage AMARE.
The mark [14] stands for this setting: pre-emergence, 1,000 g/ha, evaluated after 13 days (100=total damage; 0=no damage), read-out: Percentage damage SOLNI.
The mark [15] stands for this setting: pre-emergence, 1,000 g/ha, evaluated after 13 days (100=total damage; 0=no damage), read-out: Percentage damage SETFA.
The mark [16] stands for this setting: pre-emergence, 1,000 g/ha, evaluated after 13 days (100=total damage; 0=no damage), read-out: Percentage damage ECHCG.
The mark [17] stands for this setting: pre-emergence, 1,000 g/ha, evaluated after 13 days (100=total damage; 0=no damage), read-out: Percentage damage IPOHE.
Setting [18] is: pre-emergence, 1,000 g/ha, evaluated after 13 days (100=total damage; 0=no damage), read-out: Percentage damage ALOMY.
Setting [19] is: post-emergence, 1,000 g/ha, evaluated after 13 days (100=total damage; 0=no damage), read-out: Percentage damage caused to weed species, AMARE.
Where [20] appears, read: post-emergence, 1,000 g/ha, evaluated after 13 days (100=total damage; 0=no damage), read-out: Percentage damage caused to weed species, SOLNI.
The mark [21] stands for this setting: post-emergence, 1,000 g/ha, evaluated after 13 days (100=total damage; 0=no damage), read-out: Percentage damage caused to weed species, SETFA.
[22] abbreviates: post-emergence, 1,000 g/ha, evaluated after 13 days (100=total damage; 0=no damage), read-out: Percentage damage caused to weed species, ECHCG.
Where [23] appears, read: post-emergence, 1,000 g/ha, evaluated after 13 days (100=total damage; 0=no damage), read-out: Percentage damage caused to weed species, IPOHE.
The mark [24] stands for this setting: post-emergence, 1,000 g/ha, evaluated after 13 days (100=total damage; 0=no damage), read-out: Percentage damage caused to weed species, ALOMY.
The mark [25] stands for this setting: pre-emergence, rate 1,000 g/ha, evaluated after 13 days (100=total damage to plant; 0=no damage), read-out: Percentage damage caused to weed species, AMARE.
Where [26] appears, read: pre-emergence, rate 1,000 g/ha, evaluated after 13 days (100=total damage to plant; 0=no damage), read-out: Percentage damage caused to weed species, SOLNI.
Where [27] appears, read: pre-emergence, rate 1,000 g/ha, evaluated after 13 days (100=total damage to plant; 0=no damage), read-out: Percentage damage caused to weed species, SETFA.
Setting [28] is: pre-emergence, rate 1,000 g/ha, evaluated after 13 days (100=total damage to plant; 0=no damage), read-out: Percentage damage caused to weed species, ECHCG.
The mark [29] stands for this setting: pre-emergence, rate 1,000 g/ha, evaluated after 13 days (100=total damage to plant; 0=no damage), read-out: Percentage damage caused to weed species, IPOHE.
Where [30] appears, read: pre-emergence, rate 1,000 g/ha, evaluated after 13 days (100=total damage to plant; 0=no damage), read-out: Percentage damage caused to weed species, ALOMY.
[31] abbreviates: Rate 1,000 g/ha, post-emergence spray, evaluated after 13 days (100=total damage to plant; 0=no damage to plant), read-out: Percentage damage caused to weed species, post-emergence, AMARE.
The mark [32] stands for this setting: Rate 1,000 g/ha, post-emergence spray, evaluated after 13 days (100=total damage to plant; 0=no damage to plant), read-out: Percentage damage caused to weed species, post-emergence, SOLNI.
[33] abbreviates: Rate 1,000 g/ha, post-emergence spray, evaluated after 13 days (100=total damage to plant; 0=no damage to plant), read-out: Percentage damage caused to weed species, post-emergence, SETFA.
Where [34] appears, read: Rate 1,000 g/ha, post-emergence spray, evaluated after 13 days (100=total damage to plant; 0=no damage to plant), read-out: Percentage damage caused to weed species, post-emergence, ECHCG.
The mark [35] stands for this setting: Rate 1,000 g/ha, post-emergence spray, evaluated after 13 days (100=total damage to plant; 0=no damage to plant), read-out: Percentage damage caused to weed species, post-emergence, IPOHE.
Setting [36] is: Rate 1,000 g/ha, post-emergence spray, evaluated after 13 days (100=total damage to plant; 0=no damage to plant), read-out: Percentage damage caused to weed species, post-emergence, ALOMY.

Turning to `COC(=O)c1nc(C2CC2)nc(NC(c2ccc(Cl)cc2)C2CC2)c1Cl` (stereo not drawn) [Compound 4-200, 5-Chloro-4-[1-(4-chlorophenyl)-1-(cyclopropyl)methyl-amino]-2-cyclopropyl-6-methoxycarbonyl-pyrimidine], the pest or weed control at 1000 g/ha was 20% in assay [1] (setting [13]); 0% in the assay on Solanum nigrum (SOLNI) [2] (setting [14]); 0% in the assay on Setaria faberi (SETFA) [3] (setting [15]); 0% in assay [4] (setting [16]); 50% in [5] (setting [17]); 0% in assay [6] (setting [18]). Further, the pest or weed control at 1000 g/ha in [7] (setting [19]) stood at 100%; with Solanum nigrum (SOLNI) [8] (setting [20]) it was 80%; in the assay with Setaria faberi (SETFA) [9] (setting [21]), 40%; in assay [10] (setting [22]), 20%; in assay [11] (setting [23]), 90%; in assay [12] (setting [24]), 20%.
On to `CCC(Nc1nc(C2CC2)nc(C(=O)OC)c1Cl)c1ccccc1` (stereo not drawn) [Compound 4-194, 5-Chloro-2-cyclopropyl-6-methoxycarbonyl-4-(1-phenylpropyl-amino)pyrimidine], for which the pest or weed control at 1000 g/ha in assay [1] (setting [13]) is 100%; in the assay on Solanum nigrum (SOLNI) [2] (setting [14]), 60%; in the assay on Setaria faberi (SETFA) [3] (setting [15]), 10%; in [4] (setting [16]), 20%; in assay [5] (setting [17]), 90%; in assay [6] (setting [18]), 10%. The pest or weed control at 1000 g/ha in [7] (setting [19]) was 100%; in the assay with Solanum nigrum (SOLNI) [8] (setting [20]), 100%; with Setaria faberi (SETFA) [9] (setting [21]) it was 80%; in assay [10] (setting [22]) it was 60%; in assay [11] (setting [23]), 100%; in [12] (setting [24]), 10%.
In the case of `C=CCN(Cc1ccc(F)cc1)c1nc(C2CC2)nc(C(=O)OC)c1Cl` [Compound 151-66, 5-Chloro-2-cyclopropyl-4-[N-(4-fluorophenylmethyl)-N-prop-2-en-1-yl-amino]-6-methoxy-carbonylpyrimidine], the pest or weed control at 1000 g/ha in assay [1] (setting [25]) came out at 40%; in the assay on Solanum nigrum (SOLNI) [2] (setting [26]), 0%; with Setaria faberi (SETFA) [3] (setting [27]), 0%; in [4] (setting [28]), 0%; in assay [5] (setting [29]) it was 50%; in assay [6] (setting [30]), 0%. For the same molecule, the pest or weed control at 1000 g/ha was 80% in [7] (setting [31]); 80% in the assay with Solanum nigrum (SOLNI) [8] (setting [32]); 50% in the assay on Setaria faberi (SETFA) [9] (setting [33]); 30% in assay [10] (setting [34]); 70% in assay [11] (setting [35]); 20% in [12] (setting [36]).
With `CCN(Cc1ccc(C)o1)c1nc(C2CC2)nc(C(=O)OC)c1Cl` [Compound 6-135, 5-Chloro-2-cyclopropyl-4-[N-ethyl-N-(5-methylfuran-2-ylmethyl)-amino]-6-methoxycarbonyl-pyrimidine], the pest or weed control at 1000 g/ha in assay [1] (setting [25]) amounted to 100%; in the assay on Solanum nigrum (SOLNI) [2] (setting [26]) it was 80%; in the assay on Setaria faberi (SETFA) [3] (setting [27]), 40%; in [4] (setting [28]), 60%; in assay [5] (setting [29]), 100%; in [6] (setting [30]), 40%. In addition, the pest or weed control at 1000 g/ha came out at 100% in assay [7] (setting [31]); 90% in the assay on Solanum nigrum (SOLNI) [8] (setting [32]); 90% with Setaria faberi (SETFA) [9] (setting [33]); 60% in assay [10] (setting [34]); 90% in assay [11] (setting [35]); 30% in assay [12] (setting [36]).
As for `COC(=O)c1nc(C2CC2)nc(N(C)Cc2cc(OC)cc(OC)c2)c1Cl` [Compound 5-113, 5-Chloro-2-cyclopropyl-4-[N-(3,5-dimethoxy-phenylmethyl)-N-methyl-amino]-6-methoxycarbonyl-pyrimidine], the pest or weed control at 1000 g/ha in [1] (setting [25]) turned out to be 70%; in the assay with Solanum nigrum (SOLNI) [2] (setting [26]), 10%; in the assay with Setaria faberi (SETFA) [3] (setting [27]) it was 0%; in assay [4] (setting [28]) it was 0%; in assay [5] (setting [29]), 60%; in [6] (setting [30]), 0%. In addition, the pest or weed control at 1000 g/ha turned out to be 80% in assay [7] (setting [31]); 70% with Solanum nigrum (SOLNI) [8] (setting [32]); 30% with Setaria faberi (SETFA) [9] (setting [33]); 10% in assay [10] (setting [34]); 70% in [11] (setting [35]); 10% in assay [12] (setting [36]).
On to `COC(=O)c1nc(-c2ccc(OC)cc2)nc(NCc2ccco2)c1Cl` [Compound 250-48, 5-Chloro-4-(furan-2-ylmethylamino)-2-(4-methoxyphenyl)-6-methoxycarbonyl-pyrimidine], for which the pest or weed control at 1000 g/ha is 30% in [1] (setting [25]); 0% in the assay with Solanum nigrum (SOLNI) [2] (setting [26]); 20% with Setaria faberi (SETFA) [3] (setting [27]); 0% in [4] (setting [28]); 0% in [5] (setting [29]); 0% in [6] (setting [30]). The pest or weed control at 1000 g/ha in assay [7] (setting [31]) turned out to be 90%; with Solanum nigrum (SOLNI) [8] (setting [32]) it was 40%; in the assay on Setaria faberi (SETFA) [9] (setting [33]), 50%; in assay [10] (setting [34]) it was 30%; in assay [11] (setting [35]), 30%; in assay [12] (setting [36]), 0%.
Consider `COC(=O)c1nc(C2CC2)nc(NC2CCC2)c1Cl` [Compound 4-32, 5-Chloro-4-cyclobutylamino-2-cyclopropyl-6-methoxycarbonyl-pyrimidine], for which the pest or weed control at 1000 g/ha in [1] (setting [13]) came to 80%; in the assay with Solanum nigrum (SOLNI) [2] (setting [14]) it was 80%; with Setaria faberi (SETFA) [3] (setting [15]) it was 80%; in assay [4] (setting [16]), 50%; in [5] (setting [17]) it was 80%; in [6] (setting [18]), 50%. The pest or weed control at 1000 g/ha in assay [7] (setting [19]) turned out to be 100%; in the assay with Solanum nigrum (SOLNI) [8] (setting [20]), 90%; in the assay on Setaria faberi (SETFA) [9] (setting [21]), 90%; in [10] (setting [22]), 70%; in assay [11] (setting [23]) it was 100%; in [12] (setting [24]) it was 50%.

Source of the values: US20110086759A1, “CHEMICAL COMPOUNDS” (SYNGENTA CROP PROTECTION, INC., priority 2007, published 2011).
